Test results as given in patent publication US20240101584A1, “TARGETED DELIVERY OF 1,2,4,5 TETRAOXANE COMPOUNDS AND THEIR USES” (Westlake University, priority 2021, published 2024).
Entries after “also recorded” stand apart in the source; their conditions may differ. Where two headings read alike, the source gives them in different places. One block for each compound: values may come before it.

Experiments:
NIH3T3 cells = assay: MTT viability assay, non-cancerous NIH3T3 cells; format: cell-based
Protocol: (§1) The anticancer activities of the exemplary compounds listed in Example 1 were tested against human cervix Hela cells, mammary breast cancer MDA-MB-231 cells, human hepatocellular HepG2 cells, human colorectal HCT116 cells, mammary ductal T47D cells, non-cancerous NIH3T3 cells, dog's kidney MDCK cells, and mouse brain bEnd.3 cells, respectively.

MDA-MB-231 cells = assay: MTT viability assay, MDA-MB-231 cells; format: cell-based
Protocol: as §1

MDCK cells = assay: MTT viability assay, MDCK cells; format: cell-based, dog; conditions: 48 h incubation, mean, n = 3, read-out: IC50 against MDCK cells
Protocol: as §1

Hela cells = assay: MTT viability assay, Hela cells; format: cell-based, human; conditions: 48 h incubation, mean, n = 3, read-out: IC50 against Hela cells
Protocol: as §1

HEK293 cells = assay: MTT viability assay, HEK293 cells; format: cell-based; conditions: mean, n = 3, read-out: IC50 against HEK293 cells
HepG2 cells = assay: MTT viability assay, HepG2 cells; format: cell-based, human; conditions: MTT, 48 h incubation, mean, n = 3, read-out: IC50 against HepG2 cells
Protocol: as §1

bEnd.3 cells = assay: MTT viability assay, bEnd.3 cells; format: cell-based, mouse; conditions: mean, n = 3, read-out: IC50 against bEnd.3 cells
Protocol: as §1

T47D cells = assay: MTT viability assay, T47D cells; format: cell-based
Protocol: as §1

HCT116 cells = assay: MTT viability assay, HCT116 cells; format: cell-based, human; conditions: MTT, 48 h incubation, mean, n = 3, read-out: IC50 against HCT116 cells
Protocol: as §1

[1] = system: MDA-MB-231 xenograft tumors; assay: Mouse xenograft breast tumors (MDA-MB-231); format: in vivo, Nude mice; conditions: mouse, in vivo
Protocol: FIG. 12A is a graph showing the tumor volume of xenograft tumors versus time after s.c. injection of DMSO, PTX, compound 37b, or compound 48. Nude mice were injected s.c. with MDA-MB-231 cells (10^6) and randomly allocated to one of the six treatment groups (n=5): (i) DMSO, (ii) Paclitaxel (PTX), 5 mg/kg, (iii) compound 37b, 5 mg/kg, (iv) compound 37b, 10 mg/kg, (v) compound 48, 5 mg/kg, or (vi) compound 48, 10 mg/kg. When control animals (DMSO) began to appear tumor ulceration (25 days), all animals in the experiment were sacrificed and photographed.
FIG. 12B are photographs of the tumor from sacrificed animals of different treatment groups after 25 days. FIG. 12C is a graph showing the tumor weight of xenograft tumors versus time after s.c. injection of DMSO, PTX, compound 37b, or compound 48. Data are shown as mean±SEM. * P≤0.05 versus DMSO group. FIG. 12D are photographs showing the morphological observation of mice tissue treated with DMSO, paclitaxel, compound 37b, or compound 48 with H&E staining on heart, liver, kidney, lungs, and spleen tissues (200×).

HEYA8 CSCs = assay: CellTiter-Glo viability, HeyA8 cancer stem cells (spheres); format: cell-based; conditions: 5 μM of erastin, 50 μM of artesunate; RSL3 single dose
HeyA8 cells = assay: CellTiter-Glo viability, adherent HeyA8 ovarian cancer cells; format: cell-based
[2] = system: lipid ROS in MDA-MB-231 cells; assay: C11-BODIPY lipid ROS detection in MDA-MB-231 cells; format: cell-based; conditions: 48 5 μM, 37b 1 μM, RSL3 0.5 μM; 6 h incubation
Protocol: FIG. 11 is a bar graph showing the detection of lipid ROS with compound 48 (5 μM), compound 37b (1 μM), or RSL3 (0.5 μM) by BODIPY 581/591 C11 after 6 h incubation in MDA-MB-231 cells. **P≤0.01 versus DMSO group. Data are plotted as the mean±SD, n=3 biologically independent samples. All P values were determined using two-tailed Student's t-test.
Since lipid peroxidation is the evidence about ferroptosis, C11-BODIPY probe is used to validate the lipid ROS generated by tetraoxanes. It is a ratiometric membrane-targeted probe which changes the emission from 590 nm to 510 nm upon the detection of lipid ROS. Here, MDA-MB-231 cells were treated with 48, 37b and RSL3, respectively. The lipid ROS levels were quantified by flow cytometry. Untreated group gave weak signal in FL1 channel (FIG. 11).

[3] = Mus musculus, NIH3T3, MTT, 48 h incubation, mean, n = 3, read-out: IC50 against NIH3T3 cells
[4] = Homo sapiens, MDA-MB-231, 48 h, MTT, 48 h incubation, mean, n = 3, read-out: IC50 against MDA-MB-231 cells
[5] = Homo sapiens, HEK293, 48 h incubation
[6] = Mus musculus, BEND3, 48 h incubation
[7] = Homo sapiens, T47D, MTT, 48 h incubation, mean, n = 3, read-out: IC50 against T47D cells
[8] = MTT, 48 h incubation, mean, n = 3, read-out: IC50 against NIH3T3 cells
[9] = MTT, 48 h incubation, mean, n = 3, read-out: IC50 against MDA-MB-231 cells
[10] = MTT, 48 h incubation, mean, n = 3, read-out: IC50 against T47D cells

SMILES: CC(C)(C)C1CCC2(CC1)OOC1(CCC(OC(=O)Oc3ccc([N+](=O)[O-])cc3)CC1)OO2 (stereo not shown) [Compound 37c, 12-(tert-butyl)-7,8,15,16-tetraoxadispiro[5.2.59.26]hexadecan-3-yl(4-nitrophenyl) carbonate]
abnormal behavior or weight loss during treatment period [1]: no abnormal behavior or weight loss

SMILES: CN(C)CCCNC(=O)OC1CCC2(CC1)OOC1(OO2)C2CC3CC(C2)CC1C3 (stereo not shown) [Compound 30a, (1r,3r,5r,7r)-dispiro[adamantane-2,3′-[1,2,4,5]tetraoxane-6′,1″-cyclohexan]-4″-yl(3-(dimethylamino)propyl)carbamate]
IC50 (MDA-MB-231 cells; [4]): 14.4 µM
IC50 (MDCK cells; Canis lupus familiaris, MDCK): 42.8 µM
IC50 (HEK293 cells; [5]): 2.5 µM

SMILES: CC(C)(C)C1CCC2(CC1)OOC1(CCC(OC(=O)NCCCCO[C@@H]3O[C@H](CO)[C@@H](O)[C@H](O)[C@H]3O)CC1)OO2 (stereo partly drawn) [Compound 37i, 12-(tert-butyl)-7,8,15,16-tetraoxadispiro[5.2.59.26]hexadecan-3-yl(4-(((2R,3R,4S,5S,6R)-3,4,5-trihydroxy-6-(hydroxymethyl)tetrahydro-2H-pyran-2-yl)oxy)butyl)carbamate]
IC50 (NIH3T3 cells; [8]): > 100 µM
IC50 (MDA-MB-231 cells; [9]): 24.3 µM
IC50 (MDCK cells): > 50 µM
IC50 (Hela cells): 28.5 µM
IC50 (T47D cells; [10]): 13.2 µM

SMILES: CCOc1ccccc1-n1c(C(C)N2CCN(C(=O)COc3ccc(Cl)cc3)CC2)nc2ccccc2c1=O (stereo not shown) [Erastin, reference compound]
IC50 (NIH3T3 cells; [3]): 0.29 µM
IC50 (MDA-MB-231 cells; [4]): 1.3 µM
cytotoxic effect on HEYA8 CSCs at single dose (HEYA8 CSCs): did not show any cytotoxic effect; also recorded: almost insensitive

SMILES: O=C(CC1CCC2(CC1)OOC1(OO2)C2CC3CC(C2)CC1C3)NCCC[P+](c1ccccc1)(c1ccccc1)c1ccccc1 (stereo not shown) [Compound 6b, (3-(2-((1r,3r,5r,7r)-dispiro[adamantane-2,3′-[1,2,4,5]tetraoxane-6′,1″-cyclohexan]-4″-yl)acetamido)propyl)triphenylphosphonium bromide]
IC50 (MDA-MB-231 cells; [9]): 2.6 µM
IC50 (MDCK cells): 18.1 µM
IC50 (Hela cells): 2.2 µM
IC50 (HEK293 cells; 48 h incubation): 1.6 µM
IC50 (bEnd.3 cells; 48 h incubation): 12.3 µM
IC50 (T47D cells; [10]): 4.4 µM

SMILES: O=C(NCCC[P+](c1ccccc1)(c1ccccc1)c1ccccc1)OC1CCC2(CC1)OOC1(OO2)C2CC3CC(C2)CC1C3 (stereo not shown) [Compound 30b, (3-(((((1r,3r,5r,7r)-dispiro[adamantane-2,3′-[1,2,4,5]tetraoxane-6′,1″-cyclohexan]-4″-yl)oxy)carbonyl)amino)propyl)triphenylphosphonium bromide]
IC50 (NIH3T3 cells; [8]): 5.8 µM
IC50 (MDA-MB-231 cells; [9]): 0.53 µM
IC50 (MDCK cells): 5.8 µM
IC50 (Hela cells): 2.4 µM
IC50 (HEK293 cells; 48 h incubation): 1 µM
IC50 (HepG2 cells): 1.2 µM
IC50 (HCT116 cells): 1.4 µM

SMILES: COC(=O)c1ccc([C@@H]2c3[nH]c4ccccc4c3C[C@@H](C(=O)OC)N2C(=O)CCl)cc1 [RSL3, reference compound]
elimination of adherent HEYA8 cells (HeyA8 cells; 5 μM): eliminate the majority of adherent HEYA8 cells
selectivity between non-cancerous cells and cancer cells (NIH3T3 cells): more cytotoxic to non-cancerous cells than cancer cells
IC50 (NIH3T3 cells; [8]): 0.028 µM
IC50 (NIH3T3 cells; text b507, read-out: IC50 on NIH3T3 cells): 0.0283 ± 0.0086 µM
IC50 (MDA-MB-231 cells; [9]): 0.041 µM
lipid ROS (BODIPY 581/591 C11, FL1, flow cytometry) [2]: fluorescence enhancement in FL1 was observed

SMILES: C[C@H]1[C@H](OC(=O)CCC(=O)O)O[C@@H]2O[C@@]3(C)CC[C@H]4[C@H](C)CC[C@@H]1[C@@]24OO3 [Artesunate, reference compound]
cell death of adherent HEYA8 cells (HeyA8 cells; high concentration): ~50%
IC50 (NIH3T3 cells; [3]): 17.4 µM
IC50 (MDA-MB-231 cells; [4]): 20.3 µM
cytotoxic effect on HEYA8 CSCs at single dose (HEYA8 CSCs): did not show any cytotoxic effect; also recorded: almost insensitive

More lines, main results first:

IC50 (MDA-MB-231 cells; [4]): 2 µM
IC50 (Hela cells; Homo sapiens, HeLa): 3.9 µM
IC50 (HepG2 cells; Homo sapiens, HepG2): 2 µM
IC50 (T47D cells; [7]): 2.2 µM
IC50 (HCT116 cells; Homo sapiens, HCT-116): 4.6 µM
SMILES: CN(C)CCCNC(=O)OC1CCC2(CC1)OOC1(CCC(C(C)(C)C)CC1)OO2 (stereo not shown) [Compound 37a, 12-(tert-butyl)-7,8,15,16-tetraoxadispiro[5.2.59.26]hexadecan-3-yl(3-(dimethylamino)propyl)carbamate]
IC50 (NIH3T3 cells; [3]): 1.7 µM
IC50 (MDCK cells; Canis lupus familiaris, MDCK): 23.7 µM
IC50 (HEK293 cells; [5]): 0.8 µM
IC50 (bEnd.3 cells; [6]): 10.9 µM

IC50 (MDA-MB-231 cells; [4]): 31.7 µM
IC50 (Hela cells; Homo sapiens, HeLa): 24.8 µM
IC50 (T47D cells; [7]): 10.4 µM
SMILES: CC(C)(C)C1CCC2(CC1)OOC1(CCC(OC(=O)NCCCN(Cc3ccccc3)Cc3ccccc3)CC1)OO2 (stereo not shown) [Compound 37d, 12-(tert-butyl)-7,8,15,16-tetraoxadispiro[5.2.59.26]hexadecan-3-yl(3-(dibenzylamino)propyl)carbamate]
IC50 (NIH3T3 cells; [3]): 30.3 µM
IC50 (MDCK cells; Canis lupus familiaris, MDCK): > 100 µM

IC50 (MDA-MB-231 cells; [4]): 1.7 µM
IC50 (Hela cells; Homo sapiens, HeLa): 1.7 µM
IC50 (T47D cells; [7]): 1.2 µM
SMILES: CN(CCCNC(=O)OC1CCC2(CC1)OOC1(CCC(C(C)(C)C)CC1)OO2)Cc1ccccc1 (stereo not shown) [Compound 37e, 12-(tert-butyl)-7,8,15,16-tetraoxadispiro[5.2.59.26]hexadecan-3-yl(3-(benzyl(methyl)amino)propyl)carbamate]
IC50 (NIH3T3 cells; [3]): 1.9 µM
IC50 (MDCK cells; Canis lupus familiaris, MDCK): 19.3 µM

IC50 (MDA-MB-231 cells; [4]): 7.4 µM
IC50 (Hela cells; Homo sapiens, HeLa): 15.1 µM
IC50 (HepG2 cells; Homo sapiens, HepG2): 4.8 µM
IC50 (T47D cells; [7]): 6.1 µM
IC50 (HCT116 cells; Homo sapiens, HCT-116): 14.4 µM
SMILES: CC(C)(C)C1CCC2(CC1)OOC1(CCC(O)CC1)OO2 (stereo not shown) [Compound 37, 12-(tert-butyl)-7,8,15,16-tetraoxadispiro[5.2.59.26]hexadecan-3-ol]
IC50 (NIH3T3 cells; [3]): 7.1 µM
IC50 (MDCK cells; Canis lupus familiaris, MDCK): > 50 µM
IC50 (HEK293 cells; [5]): 5.8 µM
IC50 (bEnd.3 cells; [6]): > 100 µM

IC50 (MDA-MB-231 cells; [4]): 11 µM
IC50 (MDA-MB-231 cells; Homo sapiens, MDA-MB-231, Table 12b, read-out: IC50 MDA-MB-231): 11 ± 0.9 µM
IC50 (Hela cells; Homo sapiens, HeLa): 11.5 µM
IC50 (T47D cells; [7]): 3.1 µM
IC50 (T47D cells; Homo sapiens, T47D, Table 12b, read-out: IC50 T47D): 3.1 ± 0.7 µM
SMILES: CC1=CC(=O)C(C(C)(C)CC(=O)N2CCN(C(=O)OC3CCC4(CC3)OOC3(CCC(C(C)(C)C)CC3)OO4)CC2)=C(C)C1=O (stereo not shown) [Compound 37g, 12-(tert-butyl)-7,8,15,16-tetraoxadispiro[5.2.59.26]hexadecan-3-yl 4-(3-(2,4-dimethyl-3,6-dioxocyclohexa-1,4-dien-1-yl)-3-methylbutanoyl)piperazine-1-carboxylate]
IC50 (NIH3T3 cells; [3]): 26.6 µM
IC50 (NIH3T3 cells; Mus musculus, NIH3T3, Table 12b, read-out: IC50 NIH3T3): 26.6 ± 2.6 µM
selectivity index (IC50 of NIH3T3 divided by IC50 on MDA-MB-231) (MDA-MB-231 cells; Table 12b, value in bracket): (>2.4)
IC50 (MDCK cells; Canis lupus familiaris, MDCK): 22.3 µM
selectivity index (IC50 of NIH3T3 divided by IC50 on T47D) (T47D cells; Table 12b, value in bracket): (>8.5)
